Data as given in ChEMBL document CHEMBL5126580, “Design, synthesis and biological evaluation of 2-pyrrolone derivatives as radioprotectors” (Bioorg Med Chem, 2022).
Calls of active or inactive are those of the source. The rule behind the calls is not given here.

Columns and labels:
[1] = biological target: Cellular tumor antigen p53 (Homo sapiens) (UniProt P04637); assay: Inhibition of p53 in human MOLT-4 cells assessed as suppression of gamma-irradiation-induced decrease in cell viability at 20 to 100 uM preincubated for 1 hr followed by 10 Gy 137Cs gamma-ray exposure and measured after 27 hrs by erythrosin B staining based dye exclusion assay; details: dose 20-100 µM, time 28.0 hrs
Sequence of Cellular tumor antigen p53 (Homo sapiens) (P04637 whole entry, looked up): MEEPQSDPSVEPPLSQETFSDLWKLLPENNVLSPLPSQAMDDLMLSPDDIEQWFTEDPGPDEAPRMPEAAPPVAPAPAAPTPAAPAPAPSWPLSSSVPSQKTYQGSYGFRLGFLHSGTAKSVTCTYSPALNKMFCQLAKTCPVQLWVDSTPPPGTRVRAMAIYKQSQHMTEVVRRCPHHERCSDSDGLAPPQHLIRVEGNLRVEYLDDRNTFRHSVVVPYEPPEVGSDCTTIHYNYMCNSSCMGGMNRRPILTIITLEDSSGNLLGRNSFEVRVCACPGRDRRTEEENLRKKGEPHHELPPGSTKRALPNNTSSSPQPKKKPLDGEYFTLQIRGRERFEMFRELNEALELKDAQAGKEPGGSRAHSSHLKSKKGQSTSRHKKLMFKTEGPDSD

MOLT-4 [2] = assay: Cytotoxicity against human MOLT-4 cells assessed as reduction in cell viability measured after 1 hr by erythrosin B staining based dye exclusion assay; type: toxicity; details: molt-4, 1 h
[3] = biological target: Cellular tumor antigen p53 (Homo sapiens) (UniProt P04637); assay: Inhibition of p53 in human MOLT-4 cells assessed as suppression of gamma-irradiation-induced decrease in cell viability at 50 to 100 uM preincubated for 1 hr followed by 10 Gy 137Cs gamma-ray exposure and measured after 27 hrs by erythrosin B staining based dye exclusion assay; details: dose 50-100 µM, time 28.0 hrs
[4] = biological target: Cellular tumor antigen p53 (Homo sapiens) (UniProt P04637); assay: Inhibition of p53 in human MOLT-4 cells assessed as suppression of gamma-irradiation-induced decrease in cell viability at 20 uM preincubated for 1 hr followed by 10 Gy 137Cs gamma-ray exposure and measured after 27 hrs by erythrosin B staining based dye exclusion assay; details: time 28.0 hrs
MOLT-4 [5] = assay: Cytotoxicity against human MOLT-4 cells assessed as reduction in cell viability at 80 uM measured after 1 hr by erythrosin B staining based dye exclusion assay; type: toxicity; details: molt-4, 1 h
MOLT-4 [6] = assay: Radioprotective activity in gamma-irradiated human MOLT-4 cells assessed as reduction in p53 expression at 3 to 100 uM preincubated for 1 hr followed by 10 Gy 137Cs gamma-ray exposure and measured after 6 hrs by Western blot analysis; type: functional, cell-based; details: dose 3-100 µM, time 7.0 hrs
[7] = biological target: Cellular tumor antigen p53 (Homo sapiens) (UniProt P04637); assay: Inhibition of p53 in human MOLT-4 cells assessed as suppression of gamma-irradiation-induced decrease in cell viability at 40 uM preincubated for 1 hr followed by 10 Gy 137Cs gamma-ray exposure and measured after 27 hrs by erythrosin B staining based dye exclusion assay; details: time 28.0 hrs
MOLT-4 [8] = assay: Cytotoxicity against human MOLT-4 cells assessed as reduction in cell viability at 40 uM measured after 1 hr by erythrosin B staining based dye exclusion assay; type: toxicity; details: molt-4, 1 h
MOLT-4 [9] = assay: Cytotoxicity against human MOLT-4 cells assessed as reduction in cell viability at 10 to 20 uM measured after 1 hr by erythrosin B staining based dye exclusion assay; type: toxicity; details: molt-4, 1 h, dose 10-20 µM

| SMILES | inhibition [1] | Activity (MOLT-4 [2]) | other results |
| --- | --- | --- | --- |
| CCOC(=O)C1=C(C)N(c2cccc(OC)c2)C(=O)/C1=C\c1ccc(C(=O)O)cc1 | Active |  |  |
| COC(=O)C1=C(C)N(c2cccc(OC)c2)C(=O)/C1=C\c1ccc(OC)cc1 |  | Toxic |  |
| CNC(=O)C1=C(C)N(c2cccc(OC)c2)C(=O)/C1=C\c1ccc(C(=O)O)cc1 |  |  | inhibition [3]: Active |
| COC(=O)C1=C(C)N(c2cccc(OC)c2)C(=O)/C1=C\c1ccncc1 |  | Toxic |  |
| COC(=O)C1=C(C)N(c2cccc(OC(C)C)c2)C(=O)/C1=C\c1ccc(C(=O)O)cc1 |  |  | inhibition [4]: Active; Activity (MOLT-4 [5]): Toxic; Activity (MOLT-4 [6]): Active |
| COC(=O)C1=C(C)N(c2cccc(OC)c2)C(=O)/C1=C\c1ccc(S(N)(=O)=O)cc1 |  | Toxic |  |
| COC(=O)C1=C(C)N(c2cccc(OC)c2)C(=O)/C1=C/c1ccc(C(=O)O)cc1 | Active |  |  |
| COC(=O)C1=C(C)N(c2cccc(OC)c2)C(=O)/C1=C\c1ccc(C(=O)O)cc1 |  |  | inhibition [4]: Active; Activity (MOLT-4 [5]): Toxic; Activity (MOLT-4 [6]): Active |
| COC(=O)C1=C(C)N(c2cccc(OC)c2)C(=O)/C1=C\c1ccc(Cl)cc1 |  | Toxic |  |
| COC(=O)C1=C(C)N(c2ccccc2)C(=O)/C1=C\c1ccc(C(=O)O)cc1 | Active |  |  |
| COC(=O)C1=C(C)N(c2cccc(OC)c2)C(=O)/C1=C\c1ccc([N+](=O)[O-])cc1 |  | Toxic |  |
| COC(=O)C1=C(C)N(c2cccc(OC)c2)C(=O)/C1=C\c1ccccc1S(=O)(=O)[O-].[Na+] |  | Non-Toxic |  |
| CCCCCCOC(=O)C1=C(C)N(c2cccc(OC)c2)C(=O)/C1=C\c1ccc(C(=O)O)cc1 |  | Toxic |  |
| CCCCCCOc1cccc(N2C(=O)/C(=C\c3ccc(C(=O)O)cc3)C(C(=O)OC)=C2C)c1 |  | Toxic |  |
| COC(=O)C1=C(C)N(c2ccc(OC)cc2)C(=O)/C1=C\c1ccc(C(=O)O)cc1 | Active |  |  |
| COC(=O)C1=C(C)N(c2cccc(OC)c2)C(=O)/C1=C\c1ccc(-c2nnn[nH]2)cc1 | Active |  | Activity (MOLT-4 [6]): Active |
| CCOC(=O)c1ccc(/C=C2\C(=O)N(c3cccc(OC)c3)C(C)=C2C(=O)OC)cc1 |  | Toxic |  |
| COC(=O)C1=C(C)N(c2ccccc2OC)C(=O)/C1=C\c1ccc(C(=O)O)cc1 | Active |  |  |
| COC(=O)C1=C(C)N(c2cccc(OC)c2)C(=O)/C1=C\c1ccncc1O |  | Toxic |  |
| COc1cccc(N2C(=O)/C(=C\c3ccc(C(=O)O)cc3)C(C(=O)OC(C)(C)C)=C2C)c1 |  | Toxic |  |
| COC(=O)C1=C(C)N(c2cccc(OC)c2)C(=O)/C1=C\c1cncnc1 |  | Toxic |  |
| COC(=O)C1=C(C)N(c2cccc(O)c2)C(=O)/C1=C\c1ccc(C(=O)O)cc1 |  |  | inhibition [3]: Active |
| COC(=O)C1=C(C)N(c2cccc(OC)c2)C(=O)/C1=C\c1cccc(C(=O)O)c1 | Active |  |  |
| COC(=O)C1=C(C)N(c2cccc(OC)c2)C(=O)/C1=C\c1ccc(C(=O)NO)cc1 |  |  | inhibition [7]: Active; Activity (MOLT-4 [8]): Non-Toxic; Activity (MOLT-4 [9]): Toxic |
| COC(=O)C1=C(C)N(c2cccc(OC)c2)C(=O)C1=Cc1ccc(C(=O)O)cc1 | Active |  |  |
